Experimental data reported in ChEMBL document CHEMBL4184284, “MF-8, a novel promising arylpiperazine-hydantoin based 5-HT7 receptor antagonist: In vitro drug-likeness studies and in vivo pharmacological evaluation” (Bioorg Med Chem Lett, 2018).
The source made the active and inactive calls. The calls are words filed in the database; no cut-off is given here.

Experiments:
[1] = system: HEK293; experiment: Cytotoxicity against HEK293 cells assessed as reduction in cell viability at 1 uM after 48 hrs by EZ4U labeling based assay; details: human, hek293, 48 h
[2] = Drug metabolism in human liver microsomes assessed as OPC-14857 formation at 50 uM preincubated for 5 mins followed by NADPH addition measured after 30 mins by UPLC-MS analysis; type: ADME, microsome; details: 0.5 h
[3] = Drug metabolism in mouse liver microsomes assessed as hydroxylated main metabolite formation at 50 uM preincubated for 5 mins followed by NADPH addition measured after 30 mins by UPLC-MS analysis; type: ADME, microsome; details: 0.5 h
[4] = Drug metabolism in mouse liver microsomes assessed as DM1451 formation at 50 uM preincubated for 5 mins followed by NADPH addition measured after 30 mins by UPLC-MS analysis; type: ADME, microsome; details: 0.5 h
[5] = Intrinsic clearance in mouse liver microsomes at 50 uM preincubated for 5 mins followed by NADPH addition measured up to 30 mins; type: ADME, microsome; details: read-out: CLH
[6] = Intrinsic clearance in rat liver microsomes at 50 uM preincubated for 5 mins followed by NADPH addition measured up to 30 mins; type: ADME, microsome; details: read-out: CLH
[7] = Drug metabolism in rat liver microsomes assessed as DM1451 formation at 50 uM preincubated for 5 mins followed by NADPH addition measured after 30 mins by UPLC-MS analysis; type: ADME, microsome; details: 0.5 h
[8] = system: Rattus norvegicus; experiment: Antidepressant-like activity in Wistar rat assessed as decrease in immobility time at 2.5 mg/kg, ip administered 30 mins prior to test measured for 5 mins by forced swim test; type: functional; design: scale not given: the % may be the effect or the level left
[9] = system: Rattus norvegicus; experiment: Antidepressant-like activity in Wistar rat assessed as decrease in immobility time at 1.25 mg/kg, ip administered 30 mins prior to test measured for 5 mins by forced swim test; type: functional; design: scale not given: the % may be the effect or the level left
[10] = system: Mus musculus; experiment: Antidepressant-like activity in Swiss albino mouse assessed as decrease in immobility time at 10 mg/kg, ip administered 30 mins prior to test measured for last 4 mins of 6 mins observation by forced swim test; type: functional, organism-based
[11] = system: Mus musculus; experiment: Anxiolytic-like activity in Swiss albino mouse assessed as increase in number of punished crossings at 1 mg/kg, ip administered for 30 mins measured for 1 min post 3 sec electric shock by four-plate test; type: functional, organism-based
[12] = Effective permeability of the compound at 200 uM after 5 hrs by PAMPA; type: ADME; details: read-out: Peff
[13] = Drug level in human liver microsomes treated with MF-8 at 50 uM preincubated for 5 mins followed by NADPH addition measured after 30 mins by UPLC-MS analysis; type: ADME, microsome; details: 0.5 h
[14] = Retention time of the compound by UPLC-MS analysis; type: physicochemical
[15] = Drug level in mouse liver microsomes treated with MF-8 at 50 uM preincubated for 5 mins followed by NADPH addition measured after 30 mins by UPLC-MS analysis; type: ADME, microsome; details: 0.5 h
[16] = Drug level in rat liver microsomes treated with MF-8 at 50 uM preincubated for 5 mins followed by NADPH addition measured after 30 mins by UPLC-MS analysis; type: ADME, microsome; details: 0.5 h
[17] = system: Mus musculus; experiment: Anxiolytic-like activity in Swiss albino mouse assessed as increase in number of punished crossings at 1.25 to 5 mg/kg, ip administered for 60 mins measured for 1 min post 3 sec electric shock by four-plate test; type: functional, organism-based
[18] = system: P-gp; experiment: Activity at recombinant human Pgp expressed in cell membranes assessed as basal ATPase activity at 200 uM after 200 mins by P-gp Glo assay relative to control; type: ADME; details: cell membranes expressing recombinant human P-gp, read-out: Activity
[19] = system: Mus musculus; experiment: Toxicity in Swiss albino mouse assessed as effect on spontaneous locomotor activity at 1.25 to 5 mg/kg, ip measured for 2 to 6 mins; type: organism-based; details: in vivo
[20] = system: P-gp; experiment: Activity at recombinant human Pgp expressed in cell membranes assessed as basal ATPase activity at 50 uM after 40 mins by P-gp Glo assay relative to control; type: ADME; details: cell membranes expressing recombinant human P-gp, read-out: Activity
[21] = system: Mus musculus; experiment: Antidepressant-like activity in Swiss albino mouse assessed as decrease in immobility time at 1.25 to 2.5 mg/kg, ip administered 60 mins prior to test measured for last 4 mins of 6 mins observation by forced swim test; type: functional, organism-based
[22] = Cytotoxicity against HEK293 cells assessed as cell viability at 100 uM after 48 hrs by EZ4U labeling based assay relative to control; details: human, read-out: Activity
[23] = system: Mus musculus; experiment: Anxiolytic-like activity in Swiss albino mouse assessed as increase in number of punished crossings at 10 mg/kg, ip administered for 60 mins measured for 1 min post 3 sec electric shock by four-plate test; type: functional
[24] = system: Mus musculus; experiment: Anxiolytic-like activity in Swiss albino mouse assessed as increase in number of punished crossings at 2.5 to 5 mg/kg, ip administered for 60 mins measured for 1 min post 3 sec electric shock by four-plate test; type: functional, organism-based
[25] = system: Salmonella typhimurium; experiment: Mutagenicity in Salmonella typhimurium TA100 assessed as revertant colonies at 1 to 10 uM by Ames test; type: toxicity, organism-based; details: salmonella enterica subsp. enterica serovar typhimurium
[26] = molecular target: Cytochrome P450 2D6 (Homo sapiens, UniProt P10635); experiment: Inhibition of CYP2D6 (unknown origin) at 0.025 to 25 uM using luciferin-ME EGE as substrate by CYP450-Glo assay; type: ADME
Chain of Cytochrome P450 2D6 (P10635 whole entry): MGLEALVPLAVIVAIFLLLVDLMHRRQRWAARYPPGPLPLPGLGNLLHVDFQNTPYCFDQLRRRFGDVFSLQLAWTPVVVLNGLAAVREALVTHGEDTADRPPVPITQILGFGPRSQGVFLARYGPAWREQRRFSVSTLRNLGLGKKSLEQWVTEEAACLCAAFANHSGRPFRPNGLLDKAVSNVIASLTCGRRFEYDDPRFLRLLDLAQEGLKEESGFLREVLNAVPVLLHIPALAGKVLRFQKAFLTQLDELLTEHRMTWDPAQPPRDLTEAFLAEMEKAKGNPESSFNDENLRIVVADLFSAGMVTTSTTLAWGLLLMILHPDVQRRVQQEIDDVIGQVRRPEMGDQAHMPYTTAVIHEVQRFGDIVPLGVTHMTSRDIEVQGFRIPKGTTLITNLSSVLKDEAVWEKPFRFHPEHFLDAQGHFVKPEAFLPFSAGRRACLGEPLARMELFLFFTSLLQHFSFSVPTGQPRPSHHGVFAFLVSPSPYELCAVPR

[27] = system: Rattus norvegicus; experiment: Toxicity in Wistar rat assessed as effect on spontaneous locomotor activity at 2.5 to 10 mg/kg, ip measured for 5 mins by open field test; type: organism-based; details: in vivo
[28] = Drug metabolism in human liver microsomes at 50 uM preincubated for 5 mins followed by NADPH addition measured after 30 mins by UPLC-MS analysis; type: ADME, microsome; details: 0.5 h
[29] = Drug metabolism in rat liver microsomes at 50 uM preincubated for 5 mins followed by NADPH addition measured after 30 mins by UPLC-MS analysis; type: ADME, microsome; details: 0.5 h
[30] = system: Mus musculus; experiment: Antidepressant-like activity in Swiss albino mouse assessed as decrease in immobility time at 5 mg/kg, ip administered 60 mins prior to test measured for last 4 mins of 6 mins observation by forced swim test; type: functional; design: scale not given: the % may be the effect or the level left
[31] = system: Mus musculus; experiment: Toxicity in Swiss albino mouse assessed as effect on spontaneous locomotor activity at 2.5 to 10 mg/kg, ip measured for 1 min; type: organism-based; details: in vivo
[32] = system: Rattus norvegicus; experiment: Antidepressant-like activity in Wistar rat assessed as decrease in immobility time at 10 mg/kg, ip administered 60 mins prior to test measured for 5 mins by forced swim test; type: functional; design: scale not given: the % may be the effect or the level left
[33] = system: HepG2; experiment: Cytotoxicity against human HepG2 cells assessed as reduction in ATP level at 1 to 100 uM after 120 mins by bioluminescence-based assay; type: cell-based; details: hepg2, 2 h
[34] = Drug metabolism in mouse liver microsomes at 50 uM preincubated for 5 mins followed by NADPH addition measured after 30 mins by UPLC-MS analysis; type: ADME, microsome; details: 0.5 h
[35] = system: HEK293; experiment: Cytotoxicity against HEK293 cells assessed as reduction in cell viability at 250 uM after 48 hrs by EZ4U labeling based assay; details: human, hek293, 48 h
[36] = molecular target: CYP2D6 (Homo sapiens, UniProt P10635); experiment: Inhibition of CYP2D6 (unknown origin) assessed as residual activity at 25 uM using luciferin-ME EGE as substrate by CYP450-Glo assay; type: ADME; details: CYP2D6 enzyme (unknown origin), probe luciferin-ME EGE, read-out: Activity
Chain of CYP2D6 (P10635 whole entry): as above

[37] = Cytotoxicity against human HepG2 cells assessed as ATP level at 100 uM after 120 mins by bioluminescence-based assay relative to control; type: cell-based; details: read-out: Activity
[38] = system: Rattus norvegicus; experiment: Antidepressant-like activity in Wistar rat assessed as decrease in immobility time at 5 mg/kg, ip administered 60 mins prior to test measured for 5 mins by forced swim test; type: functional; design: scale not given: the % may be the effect or the level left
[39] = Intrinsic clearance in human liver microsomes at 50 uM preincubated for 5 mins followed by NADPH addition measured up to 45 mins; type: ADME, microsome; details: read-out: CLH
[40] = Drug level in human liver microsomes treated with aripiprazole at 50 uM preincubated for 5 mins followed by NADPH addition measured after 30 mins by UPLC-MS analysis; type: ADME, microsome; details: 0.5 h
[41] = Activity at recombinant human Pgp expressed in cell membranes assessed as basal ATPase activity at 100 uM after 200 mins by P-gp Glo assay relative to control; type: ADME
[42] = system: Mus musculus; experiment: Antidepressant-like activity in Swiss albino mouse assessed as decrease in immobility time at 10 to 20 mg/kg, ip administered 30 mins prior to test measured for last 4 mins of 6 mins observation by forced swim test; type: functional, organism-based
[43] = system: Rattus norvegicus; experiment: Antidepressant-like activity in Wistar rat assessed as decrease in immobility time at 30 mg/kg, ip administered 30 mins prior to test measured for 5 mins by forced swim test; type: functional; design: scale not given: the % may be the effect or the level left
[44] = system: HepG2; experiment: Cytotoxicity against human HepG2 cells assessed as ATP level at 10 uM after 120 mins by bioluminescence-based assay relative to control; type: cell-based; details: hepg2, 2 h
[45] = Drug level in mouse liver microsomes treated with aripiprazole at 50 uM preincubated for 5 mins followed by NADPH addition measured after 30 mins by UPLC-MS analysis; type: ADME, microsome; details: 0.5 h
[46] = Drug level in rat liver microsomes treated with aripiprazole at 50 uM preincubated for 5 mins followed by NADPH addition measured after 30 mins by UPLC-MS analysis; type: ADME, microsome; details: 0.5 h

Compound: COc1cccc2c1C(=O)c1c(O)c3c(c(O)c1C2=O)C[C@@](O)(C(=O)CO)C[C@@H]3O[C@H]1C[C@H](N)[C@H](O)[C@H](C)O1 [DOXORUBICIN]
- Activity [1]: Toxic

Compound: O=C1CCc2ccc(OCCCCN3CCN(c4cccc(Cl)c4Cl)CC3)cc2N1 [ARIPIPRAZOLE]
- Drug metabolism [2]: Metabolite_Detected
- Drug metabolism [3]: Metabolite_Detected
- Drug metabolism [4]: Metabolite_Detected
- CLint scaled at 50 µM [5]: 12.5 mL/min/kg
- CLint scaled at 50 µM [6]: 7.02 mL/min/kg
- Drug metabolism [7]: Metabolite_Detected

Compound: CC1CCN(CC[C@H]2CCCN2S(=O)(=O)c2cccc(O)c2)CC1
- Activity [8]: 22%
- Activity [9]: 30%
- Activity [10]: Active
- Activity [11]: Active

Compound: Cn1c(=O)c2c(ncn2C)n(C)c1=O [CAFFEINE]
- Papp at 5 h, 200 µM [12]: 3.61 ×10⁻⁶ cm/s

Compound: COc1cc(O)ccc1N1CCN(CC(O)CN2C(=O)NC(C)(c3ccc(F)cc3)C2=O)CC1 (stereo not given)
- Drug metabolism [13]: Metabolite_Detected
- Retention_time [14]: 3.4 min
- Drug metabolism [15]: Metabolite_Detected
- Drug metabolism [16]: Metabolite_Detected

Compound: CCn1cc(C(=O)O)c(=O)c2cc(F)c(N3CCNCC3)cc21 [NORFLOXACIN]
- Papp at 5 h, 200 µM [12]: 0.95 ×10⁻⁶ cm/s

Compound: CN1C(=O)CN=C(c2ccccc2)c2cc(Cl)ccc21
- Activity [17]: Active

Compound: COc1ccc(CCN(C)CCCC(C#N)(c2ccc(OC)c(OC)c2)C(C)C)cc1OC (stereo not given)
- activity at 200 min, 200 µM [18]: > 160%

Compound: COc1ccccc1N1CCN(CC(O)CN2C(=O)NC(C)(c3ccc(F)cc3)C2=O)CC1 (stereo not given)
- Activity [19]: Non-Toxic
- Papp at 5 h, 200 µM [12]: 2.3 ×10⁻⁶ cm/s
- activity at 40 min, 50 µM [20]: 88.7%
- Activity [21]: inactive
- viability at 48 h, 100 µM [22]: 89.2%
- Activity [23]: 30%
- Activity [24]: inactive
- Activity [25]: Non-Toxic
- inhibition (INH) [26]: Not Active
- Activity [27]: Non-Toxic
- CLint scaled at 50 µM [5]: 17.2 mL/min/kg
- Drug metabolism [28]: Metabolite_Detected
- Drug metabolism [29]: Metabolite_Detected
- Activity [30]: 36%
- Activity [31]: Non-Toxic
- Activity [32]: 26%
- CLint scaled at 50 µM [6]: 21.2 mL/min/kg
- Activity [33]: Non-Toxic
- Drug metabolism [34]: Metabolite_Detected
- Activity [35]: Toxic
- activity at 25 µM [36]: 69.4%
- viability at 2 h, 100 µM [37]: 90%
- Activity [38]: 35%
- CLint scaled at 50 µM [39]: 8.2 mL/min/kg

Compound: O=c1ccc2ccc(OCCCCN3CCN(c4cccc(Cl)c4Cl)CC3)cc2[nH]1
- Drug metabolism [40]: Metabolite_Detected

Compound: SODIUM ORTHOVANAD
- Activity [41]: 0%

Compound: CN(C)CCCN1c2ccccc2CCc2ccccc21 [IMIPRAMINE]
- Activity [42]: Active
- Activity [43]: 30%

Compound: N#CC(C#N)=NNc1cccc(Cl)c1 [CARBONYL CYANIDE M-CHLOROPHENYLHYDRAZONE]
- Activity [44]: 78%

Compound: O=C1CCc2ccc(OCCCCN3CCN(c4ccc(O)c(Cl)c4Cl)CC3)cc2N1
- Drug metabolism [45]: Metabolite_Detected
- Drug metabolism [46]: Metabolite_Detected
